Test results: US20090311237A1, “Combination therapy using a soluble hyaluronidase and a bisphosphonate” (priority 2008, published 2009)
Where two headings read alike, the source gives them in different places.

Test: Pharmacokinetics of ZA in pig serum after IV or SC infusion with or without rHuPH20 (LC-MS-MS, non-compartmental analysis)
Type: in vivo
Details: female, Yorkshire, pig, serum, […], pig; for bioavailability / Tmax / half-life / Vd/F: sc, SC ZA […], no rHuPH20 (Study Group 2), n=4; for concentration at 0.05 h / concentration at 5 min / concentration at 0.333 h / concentration at 0.5 h / concentration at 1 h: subcutaneous, Study Group 2, SC, ZA […], rHuPH20 0 U/mL, read-out: Zoledronic Acid Serum Concentration
Experimental: A pharmacokinetic study of zoledronic acid (ZA) co-administered with rHuPH20 in female Yorkshire swines was conducted. The primary objective of the study was to determine the bioavailability of zoledronic acid dosed via subcutaneous (SC) co-administration with human recombinant hyaluronidase PH20 (rHuPH20) and to compare the overall exposure to an equivalent IV dose.
Animals in Study Group 1 were dosed with 0.15 mg/kg ZA given via a 20-minute IV infusion. Animals in Study Groups 2 and 3 were dosed subcutaneously (SC) with 0.15 mg/kg ZA without and with rHuPH20, respectively, in different SC delivery volumes.
Following ZA dose administration, serial blood samples were collected via vascular access ports (VAPs) for serum preparation and determination of ZA concentrations. Blood collection times were at 1, 3, 5, 10, 15, 20, 30, 45, and 60 minutes, and at 1.5, 2, 3, 4, 6, 8, 10, 24, 48, and 72 hours post dose. Urine samples were also collected to compare excretion characteristics between IV and SC routes of administration. Collection times for urine were at 15 minutes before dosing (−15 min.), continuously from dose initiation to 2 hours post dose, and at 4, 6, 8, and 24 hours post dose thereafter.
Serum concentration of ZA was determined using a qualified LC-MS-MS assay after derivatization with diazomethane (Zhu, L S et al. (2006) Rapid Commun. Mass Spectrom. 20: 3421-3426; “Qualification Data of An LC-MS/MS Method for the Determination of Zoledronate in Porcine Serum”, MDS Pharma Services Study No. AA43671-01, Report Date 14 Sep. 2007). The assay range was from 2.0 to 400 ng/mL with a lower limit of quantitation (LLOQ) at 2.0 ng/mL. Urine concentration of ZA was determined by a similar well qualified LC-MS-MS method (“Qualification Data of An LC-MS/MS Method for the Determination of Zoledronate in Porcine Urine”, MDS Pharma Services Study No. AA43671-02, Report Date 14 Sep. 2007) with an assay LLOQ at 10 ng/mL.
Pharmacokinetic (PK) analyses of ZA serum concentration versus time data were conducted using WinNonlin v5.1 (Pharsight, Mountain View, Calif.). Non-compartmental analysis was used for derivation of primary and secondary pharmacokinetic (PK) parameters. AUC, Cmax, and Tmax were compared between dose routes, between co-administration with rHuPH20, and with dose of rHuPH20.

O=P(O)(O)C(O)(Cn1ccnc1)P(=O)(O)O [ZA, 1-hydroxy-2-(1H-imidazol-1-yl)ethylidene-1,1-bisphosphonic acid]
bioavailability (read-out: SC Bioavailability (0-8 h), mean): 87.7 ± 15%
bioavailability (read-out: SC Bioavailability (0-8 h), median): 86.9%
Tmax (read-out: Tmax, mean): 12.6 min
Tmax (read-out: Tmax, median): 10.2 min
half-life (read-out: T½ λz, mean (converted)): 64.2 ± 14.4 min
half-life (read-out: T½ λz, median (converted)): 59.4 min
Vd/F (read-out: Vss/F, mean): 0.607 L/kg
Vd/F (read-out: Vss/F, median): 0.625 L/kg
Vd/F (read-out: Vz/F, mean): 0.784 L/kg
Vd/F (read-out: Vz/F, median): 0.832 L/kg
concentration at 0.05 h (pig ID 59, 100 mL, 16 min): 13.9 ng/mL
concentration at 0.05 h (pig ID 60, 100 mL, 16 min): 51.5 ng/mL
concentration at 0.05 h (pig ID 62, 50 mL, 8 min): 97.6 ng/mL
concentration at 0.05 h (pig ID 69, 25 mL, 4 min): 144 ng/mL
concentration at 0.05 h (pig ID 70, 10 mL, 1.6 min): 174 ng/mL
concentration at 5 min (pig ID 59, 100 mL, 16 min): 32.4 ng/mL
concentration at 5 min (pig ID 60, 100 mL, 16 min): 85 ng/mL
concentration at 0.333 h (pig ID 59, 100 mL, 16 min): 130 ng/mL
concentration at 0.333 h (pig ID 60, 100 mL, 16 min): 255 ng/mL
concentration at 0.333 h (pig ID 62, 50 mL, 8 min): 208 ng/mL
concentration at 0.333 h (pig ID 69, 25 mL, 4 min): 210 ng/mL
concentration at 0.333 h (pig ID 70, 10 mL, 1.6 min): 233 ng/mL
concentration at 0.5 h (pig ID 59, 100 mL, 16 min): 120 ng/mL
concentration at 0.5 h (pig ID 60, 100 mL, 16 min): 211 ng/mL
concentration at 0.5 h (pig ID 62, 50 mL, 8 min): 149 ng/mL
concentration at 0.5 h (pig ID 69, 25 mL, 4 min): 115 ng/mL
concentration at 0.5 h (pig ID 70, 10 mL, 1.6 min): 191 ng/mL
concentration at 1 h (pig ID 59, 100 mL, 16 min): 44.6 ng/mL
concentration at 1 h (pig ID 60, 100 mL, 16 min): 149 ng/mL
concentration at 1 h (pig ID 62, 50 mL, 8 min): 81.6 ng/mL
concentration at 1 h (pig ID 69, 25 mL, 4 min): 74.6 ng/mL
